A value given as a limit tells only on which side of the number the result lay.

The series is described as follows: Effect of compound on gelation time of human serum induced by dithiothreitol (DTT). It counts as ADME.
Molecule `NC(CSSCC(N)C(=O)O)C(=O)O` (stereo not drawn) showed an Inhibitory concentration of 20 mM.

In the case of `C=CCSS/C=C/C[S+]([O-])CC=C` (stereo not drawn) [AJOENE], the Inhibitory concentration amounted to 10 mM.

As for `O=C1O[C@H]([C@@H](O)CO)C(O)=C1O` [ASCORBIC ACID], the Inhibitory concentration is recorded as above 100 mM.

The molecule `N[C@@H](CS)C(=O)O` [CYSTEINE] showed an Inhibitory concentration above 200 mM.

The molecule `O=C1OC(C(O)CO)C(=O)C1=O` (stereo not drawn) [DEHYDROASCORBIC ACID] returned an Inhibitory concentration of 20 mM.

Turning to `C=CCSCC=C` [DIALLYL SULFIDE], the Inhibitory concentration is given as above 200 mM.

Regarding `C=CCSSCC=C` [DIALLYLDISULFIDE], the Inhibitory concentration is on record as 20 mM.

Turning to `CC(=O)C=O` [METHYLGLYOXAL], the Inhibitory concentration came out at 20 mM.

For the origin of these results see ChEMBL document CHEMBL1126463, “Thiol-induced crosslinking of human blood proteins: implications for tumor immunity” (Bioorg Med Chem Lett, 1992).
